In US20260166159A1, “KRAS G12D DEGRADATION AGENT, AND PREPARATION METHOD AND USE THEREFOR” (LEADINGTAC PHARMACEUTICAL (SHAOXING) CO., LTD., priority 2022, published 2026):

Target: T1, KRAS-G12D (Homo sapiens, UniProt P01116, G12D)
T1 construct: endogenous in cells; host or cells: A-427 (ATCC), AGS, AsPc-1, Panc 04.03
Assay: KRAS-G12D degradation assay (Western Blot), Panc 04.03 cells
Assay type: cell-based
Details: 24 h
Method in brief: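 Western blotting of lysates (5 μg protein) quantified KRAS against a β-actin reference after 24 h exposure to compound at final 0.03–3000 nM in 0.25% DMSO. Cells were A-427, AGS, AsPc-1 or Panc 04.03, all KRAS G12D, at 5×10^5/well. Degradation versus control yielded DC50 and Dmax.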

T1 sequence (P01116 1-188 isoform P01116-2 G12D): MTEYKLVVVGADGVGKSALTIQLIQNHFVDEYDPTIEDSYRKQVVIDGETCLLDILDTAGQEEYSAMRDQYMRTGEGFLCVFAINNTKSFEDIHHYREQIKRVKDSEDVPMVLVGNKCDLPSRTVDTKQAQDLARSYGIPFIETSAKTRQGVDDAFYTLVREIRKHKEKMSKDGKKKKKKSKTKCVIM

Row | Structure (SMILES) | DC50 [nM] | Dmax [%]
1 | C#Cc1c(F)ccc2cc(O)cc(-c3ncc4c(N5CC6CCC(C5)N6)nc(OCC5(CN6CCN(CC7CCC8(CC7)CCN(C(=O)c7ccc(Cl)c(N9CCC(=O)NC9=O)c7)CC8)CC6)CC5)nc4c3F)c12 [Example 6, 1-(5-(9-((4-((1-(((4-(3,8-diazabicyclo[3.2.1]octan-3-yl)-7-(8-ethynyl-7-fluoro-3-hydroxynaphthalen-1-yl)-8-fluoropyrido[4,3-d]pyrimidin-2-yl)oxy)methyl)cyclopropyl)methyl)piperazin-1-yl)methyl)-3-azaspiro[5.5]undecane-3-carbonyl)-2-chlorophenyl)dihydropyrimidine-2,4(1H,3H)-dione] | 21.7 | 99.9
2 | C#Cc1c(F)ccc2cc(O)cc(-c3ncc4c(N5CC6CCC(C5)N6)nc(OCC(C)CN5CCN(CC6CCC7(CC6)CCN(C(=O)c6ccc(OC)c(N8CCC(=O)NC8=O)c6)CC7)CC5)nc4c3F)c12 (stereo not drawn) [Example 84, 1-(5-(9-((4-(3-((4-(3,8-diazabicyclo[3.2.1]octan-3-yl)-7-(8-ethynyl-7-fluoro-3-hydroxynaphthalen-1-yl)-8-fluoropyrido[4,3-d]pyrimidin-2-yl)oxy)-2-methylpropyl)piperazin-1-yl)methyl)-3-azaspiro[5.5]undecane-3-carbonyl)-2-methoxyphenyl)dihydropyrimidine-2,4(1H,3H)-dione] | 1.99 | 98.6
3 | CCc1cccc2cc(O)cc(-c3ncc4c(N5CC6CCC(C5)N6)nc(OCC5(CN6CCN(CC7CCC8(CC7)CCN(C(=O)c7ccc(OC)c(N9CCC(=O)NC9=O)c7)CC8)CC6)CC5)nc4c3F)c12 [Example 20, 1-(5-(9-((4-((1-(((4-(3,8-diazabicyclo[3.2.1]octan-3-yl)-7-(8-ethyl-3-hydroxynaphthalen-1-yl)-8-fluoropyrido[4,3-d]pyrimidin-2-yl)oxy)methyl)cyclopropyl)methyl)piperazin-1-yl)methyl)-3-azaspiro[5.5]undecane-3-carbonyl)-2-methoxyphenyl)dihydropyrimidine-2,4(1H,3H)-dione] | 15.1 | 100
4 | CCc1c(F)ccc2cc(O)cc(-c3ncc4c(N5CC6CCC(C5)N6)nc(OCC5(CN6CCN(CC7CCC8(CC7)CCN(C(=O)c7ccc(OC)c(N9CCC(=O)NC9=O)c7)CC8)CC6)CC5)nc4c3F)c12 [Example 15, 1-(5-(9-((4-((1-(((4-(3,8-diazabicyclo[3.2.1]octan-3-yl)-7-(8-ethyl-7-fluoro-3-hydroxynaphthalen-1-yl)-8-fluoropyrido[4,3-d]pyrimidin-2-yl)oxy)methyl)cyclopropyl)methyl)piperazin-1-yl)methyl)-3-azaspiro[5.5]undecane-3-carbonyl)-2-methoxyphenyl)dihydropyrimidine-2,4(1H,3H)-dione] | 16.6 | 98.9
5 | C#Cc1cccc2cc(O)cc(-c3ncc4c(N5CC6CCC(C5)N6)nc(OCC5(CN6CCN(CC7CCC8(CC7)CCN(C(=O)c7ccc(Cl)c(N9CCC(=O)NC9=O)c7)CC8)CC6)CC5)nc4c3F)c12 [Example 57, 1-(5-(9-((4-((1-(((4-(3,8-diazabicyclo[3.2.1]octan-3-yl)-7-(8-ethynyl-3-hydroxynaphthalen-1-yl)-8-fluoropyrido[4,3-d]pyrimidin-2-yl)oxy)methyl)cyclopropyl)methyl)piperazin-1-yl)methyl)-3-azaspiro [5.5]undecane-3-carbonyl)-2-chlorophenyl)dihydropyrimidine-2,4(1H,3H)-dione] | 8.95 | 97.3
6 | C#Cc1c(F)ccc2cc(O)cc(-c3ccc4c(N5CC6CCC(C5)N6)nc(OCC5(CN6CCN(CC7CCC8(CC7)CCN(C(=O)c7ccc(C)c(N9CCC(=O)NC9=O)c7)CC8)CC6)CC5)nc4c3F)c12 [Example 42, 1-(5-(9-((4-((1-(((4-(3,8-diazabicyclo[3.2.1]octan-3-yl)-7-(8-ethynyl-7-fluoro-3-hydroxynaphthalen-1-yl)-8-fluoroquinazolin-2-yl)oxy)methyl)cyclopropyl)methyl)piperazin-1-yl)methyl)-3-azaspiro[5.5]undecane-3-carbonyl)-2-methylphenyl)dihydropyrimidine-2,4(1H,3H)-dione] | 7.46 | 100
